Laboratory results taken from US11000033B2, “Ketone or oxime compound, and herbicide” (NISSAN CHEMICAL CORPORATION, priority 2014, dated 2021).

Tests used:
Format in all cases: in vivo
[1] = system: Galium spurium; assay: Test Example 5: herbicidal effect by foliage application, plastic box (symbol Q); conditions: 3 weeks after application
How it was run: (§1)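 Sowing in sterilized diluvial soil, 14 days' greenhouse growth at 25° C. to 30° C., then uniform small-sprayer foliar application of aqueous emulsion dilution; plants scored three weeks afterwards.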

[2] = system: Stellaria media; assay: Test Example 4: herbicidal effect by soil treatment (symbol P); conditions: for Herbicidal effect grade, P: Stellaria media: application herbicide amount 320 g/ha
How it was run: (§2)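 Seeds were sown in sterilized diluvial soil, covered with about 1.5 cm of soil, and the soil surface was sprayed with a water-diluted emulsion of the compound at a predetermined rate. Plants grew in a greenhouse at 25° C. to 30° C.; effects were scored visually 3 weeks after application.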

[3] = system: Monochoria vaginalis; assay: Test Example 1: herbicidal activity, application before weed generation in submerged conditions (symbol C); conditions: for C (Monochoria vaginalis) herbicidal effect grade: application herbicide amount 320 g/ha
How it was run: (§3)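 Flooded alluvial soil (4 cm water) was mixed-sown with the three weed species, and 2.5-leaf rice seedlings were transplanted. On sowing day, a water-diluted emulsion at a predetermined rate was applied to the water surface. After 3 weeks in a 25–30 °C greenhouse, effect was scored 0–5.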

[4] = system: Setaria viridis; assay: Test Example 4: herbicidal effect by soil treatment (symbol G); conditions: for Herbicidal effect grade, G: Setaria viridis: application herbicide amount 320 g/ha
How it was run: as §2

[5] = system: transplanted rice plant; assay: Test Example 1: effect on crop, application before weed generation in submerged conditions (symbol a); conditions: for a (transplanted rice plant) effect on crop grade: application herbicide amount 320 g/ha
How it was run: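 Alluvial soil pots flooded to 4 cm water, sown with Echinochloa oryzacola, Scirpus juncoides and Monochoria vaginalis, then transplanted with 2.5 leaf stage rice seedlings; pre-emergence application. Greenhouse 25° C. to 30° C.; scored 0–5 by herbicidal ratio 3 weeks after application.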

[6] = system: wheat; assay: Test Example 5: effect on crop by foliage application, plastic box (symbol e); conditions: 3 weeks after application
How it was run: (§4)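 Diluvial soil, sterilized and boxed (21 × 13 × 7 cm), received spot-sown seed covered by about 1.5 cm soil; plants were then greenhouse-grown at 25–30° C.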

[7] = system: Abutilon theophrasti; assay: Test Example 4: herbicidal effect by soil treatment (symbol M); conditions: for Herbicidal effect grade, M: Abutilon theophrasti: application herbicide amount 320 g/ha
How it was run: as §2

[8] = system: Veronica persica; assay: Test Example 4: herbicidal effect by soil treatment (symbol R); conditions: for Herbicidal effect grade, R: Veronica persica: application herbicide amount 320 g/ha
How it was run: as §2

[9] = system: Lolium multiflorum Lam.; assay: Test Example 5: herbicidal effect by foliage application, plastic box (symbol K); conditions: 3 weeks after application
How it was run: as §1

[10] = system: Scirpus juncoides; assay: Test Example 1: herbicidal activity, application before weed generation in submerged conditions (symbol B); conditions: for B (Scirpus juncoides) herbicidal effect grade: application herbicide amount 320 g/ha
How it was run: as §3

[11] = system: Galium spurium; assay: Test Example 4: herbicidal effect by soil treatment (symbol Q); conditions: for Herbicidal effect grade, Q: Galium spurium: application herbicide amount 320 g/ha
How it was run: as §2

[12] = system: Digitaria ciliaris; assay: Test Example 5: herbicidal effect by foliage application, plastic box (symbol F); conditions: 3 weeks after application
How it was run: as §1

[13] = system: Avena fatua; assay: Test Example 5: herbicidal effect by foliage application, plastic box (symbol I); conditions: 3 weeks after application
How it was run: as §1

[14] = system: Apera spica-venti; assay: Test Example 5: herbicidal effect by foliage application, plastic box (symbol L); conditions: 3 weeks after application
How it was run: as §1

[15] = system: directly sowed rice plant; assay: Test Example 3: effect on crop by foliage application, Wagner pot (symbol b); conditions: for b (directly sowed rice plant) effect on crop grade: application herbicide amount 320 g/ha, Table 24
How it was run: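 Steps: fill a 1/10000-are Wagner pot with alluvial soil; add water and mix to submerge at 0.1–0.5 cm depth; sow rice plus Echinochloa crus-galli var. crus-galli, Leptochloa chinensis and Cyperus difformis; grow in a 25–30 °C greenhouse.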

[16] = system: rapeseed; assay: Test Example 5: effect on crop by foliage application, plastic box (symbol g); conditions: 3 weeks after application
How it was run: as §4

[17] = system: Apera spica-venti; assay: Test Example 4: herbicidal effect by soil treatment (symbol L); conditions: for Herbicidal effect grade, L: Apera spica-venti: application herbicide amount 320 g/ha
How it was run: as §2

[18] = system: Echinochloa oryzacola Vasing.; assay: Test Example 1: herbicidal activity, application before weed generation in submerged conditions (symbol A); conditions: for A (Echinochloa oryzacola Vasing.) herbicidal effect grade: application herbicide amount 320 g/ha
How it was run: as §3

[19] = application herbicide amount 102 g/ha

Structure (SMILES)	Q: Galium spurium, herbicidal effect grade ([1]; 320 g/ha)	Herbicidal effect grade, P: Stellaria media [2]	C (Monochoria vaginalis) herbicidal effect grade [3]	Herbicidal effect grade, G: Setaria viridis [4]	a (transplanted rice plant) effect on crop grade [5]	e: wheat, effect on crop grade ([6]; 320 g/ha)	Herbicidal effect grade, M: Abutilon theophrasti [7]	Herbicidal effect grade, R: Veronica persica [8]	K: Lolium multiflorum Lam., herbicidal effect grade ([9]; 320 g/ha)	B (Scirpus juncoides) herbicidal effect grade [10]	Herbicidal effect grade, Q: Galium spurium [11]	F: Digitaria ciliaris, herbicidal effect grade ([12]; 320 g/ha)	I: Avena fatua, herbicidal effect grade ([13]; 320 g/ha)	L: Apera spica-venti, herbicidal effect grade ([14]; 320 g/ha)	b (directly sowed rice plant) effect on crop grade [15]	g: rapeseed, effect on crop grade ([16]; 320 g/ha)	Herbicidal effect grade, L: Apera spica-venti [17]	A (Echinochloa oryzacola Vasing.) herbicidal effect grade [18]	other results
CC(=O)CC1CC(O)=C(c2c(C)cc(C)cc2C)C1=O (stereo not drawn) [2-001, 3-hydroxy-2-mesityl-5-(2-oxopropyl)cyclopent-2-enone]	–	–	–	–	–	–	–	–	–	–	–	–	–	–	–	–	–	–	Q: Galium spurium, herbicidal effect grade ([1]; 102 g/ha): 3 (Herbicidal ratio of 40% or higher and lower than 70%); P: Stellaria media, herbicidal effect grade ([2]; 102 g/ha): 0 (Herbicidal ratio of 5% or lower (almost no effect)); Herbicidal effect grade, C: Monochoria vaginalis [3, 19]: 0 (Herbicidal ratio of 5% or lower (almost no effect)); G: Setaria viridis, herbicidal effect grade ([4]; 102 g/ha): 4 (Herbicidal ratio of 70% or higher and lower than 90%); Effect grade on crop, a: transplanted rice plant [5, 19]: 4 (Herbicidal ratio of 70% or higher and lower than 90%); e: wheat, effect on crop grade ([6]; 102 g/ha): 0 (Herbicidal ratio of 5% or lower (almost no effect)); M: Abutilon theophrasti, herbicidal effect grade ([7]; 102 g/ha): 3 (Herbicidal ratio of 40% or higher and lower than 70%); R: Veronica persica, herbicidal effect grade ([8]; 102 g/ha): 0 (Herbicidal ratio of 5% or lower (almost no effect)); K: Lolium multiflorum Lam., herbicidal effect grade ([9]; 102 g/ha): 5 (Herbicidal ratio of 90% or more (almost completely withered)); Herbicidal effect grade, B: Scirpus juncoides [10, 19]: 0 (Herbicidal ratio of 5% or lower (almost no effect)); Q: Galium spurium, herbicidal effect grade ([11]; 102 g/ha): 0 (Herbicidal ratio of 5% or lower (almost no effect)); F: Digitaria ciliaris, herbicidal effect grade ([12]; 102 g/ha): 5 (Herbicidal ratio of 90% or more (almost completely withered)); I: Avena fatua, herbicidal effect grade ([13]; 102 g/ha): 4 (Herbicidal ratio of 70% or higher and lower than 90%); L: Apera spica-venti, herbicidal effect grade ([14]; 102 g/ha): 4 (Herbicidal ratio of 70% or higher and lower than 90%); effect on crop b (directly sowed rice plant), grade 0-5 [15, 19]: 5 (Herbicidal ratio of 90% or more (almost completely withered)); g: rapeseed, effect on crop grade ([16]; 102 g/ha): 4 (Herbicidal ratio of 70% or higher and lower than 90%); L: Apera spica-venti, herbicidal effect grade ([17]; 102 g/ha): 2 (Herbicidal ratio of 20% or higher and lower than 40%); Herbicidal effect grade, A: Echinochloa oryzacola Vasing. [18, 19]: 4 (Herbicidal ratio of 70% or higher and lower than 90%)
CC#Cc1cc(C)c(C2=C(O)CC(CC(=NOC)C(C)C)C2=O)c(C)c1 (stereo not drawn) [9-006]	0 (Herbicidal ratio of 5% or lower (almost no effect))	0 (Herbicidal ratio of 5% or lower (almost no effect))	0 (Herbicidal ratio of 5% or lower (almost no effect))	5 (Herbicidal ratio of 90% or more (almost completely withered))	5 (Herbicidal ratio of 90% or more (almost completely withered))	5 (Herbicidal ratio of 90% or more (almost completely withered))	0 (Herbicidal ratio of 5% or lower (almost no effect))	4 (Herbicidal ratio of 70% or higher and lower than 90%)	5 (Herbicidal ratio of 90% or more (almost completely withered))	4 (Herbicidal ratio of 70% or higher and lower than 90%)	0 (Herbicidal ratio of 5% or lower (almost no effect))	5 (Herbicidal ratio of 90% or more (almost completely withered))	4 (Herbicidal ratio of 70% or higher and lower than 90%)	5 (Herbicidal ratio of 90% or more (almost completely withered))	5 (Herbicidal ratio of 90% or more (almost completely withered))	4 (Herbicidal ratio of 70% or higher and lower than 90%)	5 (Herbicidal ratio of 90% or more (almost completely withered))	5 (Herbicidal ratio of 90% or more (almost completely withered))	–
CON=C(CC1CC(O)=C(c2c(C)cc(-n3cc(Cl)cn3)cc2C)C1=O)C1CC1 (stereo not drawn) [9-007]	1 (Herbicidal ratio of 5% or higher and lower than 20%)	0 (Herbicidal ratio of 5% or lower (almost no effect))	0 (Herbicidal ratio of 5% or lower (almost no effect))	5 (Herbicidal ratio of 90% or more (almost completely withered))	5 (Herbicidal ratio of 90% or more (almost completely withered))	4 (Herbicidal ratio of 70% or higher and lower than 90%)	0 (Herbicidal ratio of 5% or lower (almost no effect))	0 (Herbicidal ratio of 5% or lower (almost no effect))	5 (Herbicidal ratio of 90% or more (almost completely withered))	4 (Herbicidal ratio of 70% or higher and lower than 90%)	0 (Herbicidal ratio of 5% or lower (almost no effect))	5 (Herbicidal ratio of 90% or more (almost completely withered))	5 (Herbicidal ratio of 90% or more (almost completely withered))	5 (Herbicidal ratio of 90% or more (almost completely withered))	5 (Herbicidal ratio of 90% or more (almost completely withered))	4 (Herbicidal ratio of 70% or higher and lower than 90%)	5 (Herbicidal ratio of 90% or more (almost completely withered))	5 (Herbicidal ratio of 90% or more (almost completely withered))	–
CC#Cc1cc(C)c(C2=C(O)CC(CC(=NOC)C3CC3)C2=O)c(C)c1 (stereo not drawn) [9-008]	2 (Herbicidal ratio of 20% or higher and lower than 40%)	0 (Herbicidal ratio of 5% or lower (almost no effect))	4 (Herbicidal ratio of 70% or higher and lower than 90%)	5 (Herbicidal ratio of 90% or more (almost completely withered))	5 (Herbicidal ratio of 90% or more (almost completely withered))	5 (Herbicidal ratio of 90% or more (almost completely withered))	4 (Herbicidal ratio of 70% or higher and lower than 90%)	3 (Herbicidal ratio of 40% or higher and lower than 70%)	5 (Herbicidal ratio of 90% or more (almost completely withered))	5 (Herbicidal ratio of 90% or more (almost completely withered))	0 (Herbicidal ratio of 5% or lower (almost no effect))	5 (Herbicidal ratio of 90% or more (almost completely withered))	4 (Herbicidal ratio of 70% or higher and lower than 90%)	5 (Herbicidal ratio of 90% or more (almost completely withered))	5 (Herbicidal ratio of 90% or more (almost completely withered))	4 (Herbicidal ratio of 70% or higher and lower than 90%)	5 (Herbicidal ratio of 90% or more (almost completely withered))	5 (Herbicidal ratio of 90% or more (almost completely withered))	–
